Experimental data reported in publication PMC5790279, “Identification of novel leishmanicidal molecules by virtual and biochemical screenings targeting Leishmania eukaryotic translation initiation factor 4A” (PLoS Neglected Tropical Diseases, 2018).
Read-outs that look alike come from different tables or passages of the source.

Columns and labels:
[1] = system: intracellular L. donovani amastigotes; design: method as in PMID 16949702; conditions: at 1.94 μM; cited from earlier work
[2] = system: L. infantum promastigotes; assay: MTT viability assay on promastigotes; assay type: cell-based; conditions: Leishmania infantum, stationary phase promastigotes, 24h exposure
Method: The effect of the selected chemical compounds on the viability of L. infantum promastigotes was evaluated by a colorimetric MTT (3-(4,5-dimethylthiazol-2yl)-2,5-diphenyl tetrazolium bromide) assay that consisted in a reduction of tetrazolium salt to a soluble crystal (blue formazan) by the succinate dehydrogenase activity of mitochondria in living cells, which can be quantified by spectrophotometry as previously described. […] Briefly, 90 μl of promastigotes harvested from the stationary growth phase were added to a 96-well culture plate (5 × 10^5 cells/well) with 10 μl of various concentrations of the selected compounds (to obtain a final concentration of 1.5-100 μM) and incubated at 25°C for 24h. After incubation, 20 μl of MTT solution (5 mg/ml) were added to each well and incubated at 25°C for 4h. Then, 150 μl of DMSO was added to each well to dissolve the blue formazan and the optical density (OD) was measured at 560 nm with a microplate reader ([sequence], Labsystems). Mock treated-promastigotes in complete medium (with no drug, 1% DMSO) were used as positive control. Stock solutions of the compounds prepared for these experiments contained 100% DMSO. All subsequent dilutions were freshly made with RPMI 1640 (final concentration of 10% DMSO). Thus, all compounds, as well as the positive control, were tested at a final concentration of 1% DMSO per well.
The promastigotes viability was expressed as the percentage of the viable promastigotes in treated conditions relative to the 1% DMSO mock-treated promastigotes. The IC50 values were calculated for all the tested compounds by interpolation. […] All experiments were repeated three times in triplicate for each compound concentration. Absorbance measured was used to reflect promastigote or cell viability using the following formula: %cellviability=[(ODtest-ODblank)/(ODcontrol-ODblank)]*100 (4)

LieIF = biological target: T1, LieIF (Leishmania infantum, UniProt A4HRK0); assay: Malachite green RNA-dependent ATPase assay of LieIF; assay type: biochemical; conditions: for effect on the ATPase activity of LieIF in screen: screened at 500 μM
T1 construct: His tag; made in house; host or cells: Escherichia coli Rosetta (Novagen)
T1 sequence (A4HRK0 1-403): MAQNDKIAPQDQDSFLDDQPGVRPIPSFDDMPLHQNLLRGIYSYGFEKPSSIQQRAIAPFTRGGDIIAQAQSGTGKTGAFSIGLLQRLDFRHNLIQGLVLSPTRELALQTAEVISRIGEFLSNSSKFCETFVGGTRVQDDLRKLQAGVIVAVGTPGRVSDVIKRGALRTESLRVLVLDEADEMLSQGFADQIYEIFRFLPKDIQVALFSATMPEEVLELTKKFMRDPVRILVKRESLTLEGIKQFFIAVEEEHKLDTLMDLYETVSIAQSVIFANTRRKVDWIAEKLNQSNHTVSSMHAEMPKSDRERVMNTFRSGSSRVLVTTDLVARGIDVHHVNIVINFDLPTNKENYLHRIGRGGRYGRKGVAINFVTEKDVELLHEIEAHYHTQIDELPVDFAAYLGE
Method: (§1) The Rosetta Escherichia coli strain (Novagen) was used for the expression of His-tagged recombinant LieIF and mouse eIF4AI (eIF4AIMus) proteins using already described constructs. Protein expression was performed as previously described, except that cultures were induced with 0.5 mM IPTG. Cells were collected by centrifugation and stored at -20°C until needed. Pellets were resuspended in 10 ml of buffer A (Tris-HCl, pH 7.5, 300 mM NaCl) supplemented with 10 mM imidazole and 0.02% NP40 (lysis buffer). Lysozyme (10 μg/ml, Sigma-Aldrich, St. Louis, MO, USA) and 1x of complete protease inhibitor EDTA-free cocktail (Roche, Indianapolis, USA) were added. The mixtures were kept on ice for 30 min. Then, cells were ruptured by sonication four times for 20 seconds with a Cell Disruptor W375 (Heat System-Ultrasonic, Plainview, N.Y., USA) using a microprobe at a setting of 5 and a duty cycle of 60%. The material was centrifuged for 30 min at 15,000 rpm in a JA-20 rotor (Beckman Coulter, Villepinte, France) at 4°C, and the supernatant was loaded onto a 1 ml nickel-nitrilotriacetic acid (Ni-NTA) agarose column (Ni-NTA, Qiagen, Hilden, Germany) equilibrated with the lysis buffer. The column was washed with 20 ml buffer A supplemented with 25 mM imidazole and 0.02% NP40 (wash buffer 1), and then with 20 ml buffer A supplemented with 25 mM imidazole (wash buffer 2). Proteins were eluted with buffer A supplemented with 100 mM imidazole (elution buffer). The purity of the proteins was checked on 12% SDS-PAGE gels that were stained with Coomassie blue. Purified proteins were stored at -80°C after making 50% in glycerol (w/w). The proteins concentrations were determined using the Bio-Rad Protein Dye Assay (Biorad, Munich, Germany).
(§2) We used a colorimetric assay based on Malachite green as previously described. We optimized the previously published conditions for the LieIF and eIF4AIMus ATPase assays to fit microtiter plates and the screening conditions by varying the quantities of proteins, ATP and magnesium acetate, and by testing different sources and concentrations of RNA. Each reaction was done in 50 μl. The final reaction buffers contained 50 mM potassium acetate, 20 mM MES, pH 6, either 5 mM or 1 mM magnesium acetate for LieIF or eIF4AIMus respectively, 2 mM dithiothreitol (DTT), 0.1 mg/ml bovine serum albumin (BSA) and 0.34 mg/ml whole yeast RNA (Type XI, Sigma). Reactions were incubated at 37°C for various times up to 45 min, and were stopped by adding 5 μl of 0.5 M ethylenediaminetetraacetic acid (EDTA) at pH 8. In experiments testing the compounds, samples dissolved in DMSO were added to the reaction in different concentrations. The final concentration of DMSO in the reaction was 10% (v/v). The reaction rates were determined by a linear regression fit of the initial, linear phase of the curves. Reaction rates were determined in three independent experiments for each compound concentration. Data were analyzed with Kaleidagraph (Synergy).
The Z’-factor is a statistical parameter used to measure the quality of a screening assay. For the biochemical screening, reactions were done with and without proteins as positive and negative controls, respectively. All assay conditions were identical to those described above. Positive controls were designed to replicate a positive hit in an inhibitor screen. Negative controls were designed as no enzymatic reactions. The phosphate released was measured after 45 min. Statistical analysis was performed using the equation: Z^′=1-3*(σ^++σ^-)/(μ^+-μ^-) (2) where μ^− and σ^− correspond to the mean absorbance and standard deviations respectively, for each reaction without enzyme (no activity), and μ^+ and σ^+ are the mean absorbance and standard deviations, respectively, for reaction wells in the presence of enzyme. The Z’-factor values above 0.5 were considered significant and corresponding plates were retained. […]

eIF4AIMus = biological target: T2, eIF4AIMus (Mus musculus, UniProt P60843); assay: Malachite green RNA-dependent ATPase assay of eIF4AIMus; assay type: biochemical; conditions: for effect on the ATPase activity of eIF4AIMus in screen: screened at 500 μM
T2 construct: His tag; made in house; host or cells: Escherichia coli Rosetta (Novagen)
T2 sequence (P60843 whole entry): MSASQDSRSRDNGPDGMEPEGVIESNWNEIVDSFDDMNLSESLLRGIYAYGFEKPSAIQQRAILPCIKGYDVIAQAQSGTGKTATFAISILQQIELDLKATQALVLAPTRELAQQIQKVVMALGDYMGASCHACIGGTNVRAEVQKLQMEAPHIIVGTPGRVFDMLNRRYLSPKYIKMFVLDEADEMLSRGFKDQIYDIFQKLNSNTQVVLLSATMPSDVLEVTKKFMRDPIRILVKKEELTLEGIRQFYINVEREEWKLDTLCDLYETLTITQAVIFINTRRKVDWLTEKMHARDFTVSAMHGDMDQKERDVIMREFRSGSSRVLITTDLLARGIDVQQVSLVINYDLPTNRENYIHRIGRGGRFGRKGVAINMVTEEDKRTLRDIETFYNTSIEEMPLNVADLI
Method: as §1, §2
Biochemical screening experiments were performed in 96-well plates. Column 1 and 12 contained full signal controls (no inhibitor) and background controls (no enzyme): wells A1 to D1 and E12 to H12 corresponded to negative controls; E1 to H1 and A12 to D12 corresponded to positive controls. Compounds were added in columns 2 to 11, at a 500 μM final concentration. ATPase test reactions were done in three independent experiments. The phosphate released was measured after 45 min. Results were reported as weighted means. Z’-scores were calculated for each plate from the full signal and background controls. Plates with Z’-values below 0.5 were discarded. The inhibition of ATPase activity was calculated as follow: [85] Percentageofinhibition=(μ^+-OD630nmforcompoundX)/(μ^+-μ^-)*100 (3) Selected hits were further tested with kinetic assays. Results were reported as ATPase reaction velocities. […]

[3] = system: L. infantum intramacrophage amastigotes; assay: Macrophage infection assay, intramacrophage amastigotes; assay type: cell-based, Leishmania infantum; conditions: infected THP-1-derived macrophages, 24h exposure
Method: [86] […] [87] […] [87]
After careful washing of PMA-treated THP-1 cells (50,000 cells/well) with warm serum-free RPMI-1640 (∼ 37°C) media, 50 μl of the diluted L. infantum promastigote culture were added at the optimized MOI (10:1). Control wells of THP-1 cells without the parasites, and THP-1 cells with the parasites, were set up in each 8-well Labtek slides. The slides were incubated at 37°C, 5% CO2 overnight. After incubation, infected wells were washed at least 3 times with serum-free RPMI-1640 media to ensure complete removal of non-engulfed promastigotes, and then they were incubated in presence of different concentrations of compounds for 24 h. Control groups were incubated in supplemented RPMI medium containing 1% DMSO. Cells were then fixed and stained with RAL 555 rapid stain kit (May-Grünwald Type) (Cell Path, Newtown, UK) following the manufacturer’s instructions. The number of infected cells per 100 macrophages and the total number of parasites per 100 cells observed were determined by light microscopy under immersion oil (1000X) by counting at least 100 cells per well. Three independent experiments were conducted for each compound concentration. These values allowed us to determine the mean values and standard deviations of the percentage of infected cells and the mean amastigote number per cell. To account for the overall parasite load, an Infection Index was calculated by multiplying these two values; then, to assess the infection inhibition by the compounds, the percentage of Inhibition Parasite Index (IPI) was determined as: IPI = 100 − ((Infection Index in treated cells/Infection Index in untreated cells) * 100).
The amastigote IC50 values were calculated for all tested compounds. Selectivity index was also determined for each compound as follows: SI = CC50/IC50. Data were analyzed with Kaleidagraph (Synergy). The statistical significance of differences was determined with the Student’s t-test (* p < 0.05; ** p < 0.01).

[4] = MTT cytotoxicity assay on THP-1-derived macrophages; conditions: human, THP-1-derived macrophages (PMA-differentiated)
Method: The human myelomonocytic cell line, THP-1 was ordered from the American Type Culture Collection (ATCC, TIB-202). [86] Cells were maintained in RPMI 1640/Glutamax-I media (Gibco BRL, Germany) supplemented with 10% heat-inactivated fetal calf serum (Gibco, Germany) plus penicillin G (100 U/ml) and streptomycin (100 g/ml). THP-1 cells were differentiated to macrophages after their treatment with 20 ng/ml phorbol 12-myristate 7-acetate (PMA) (Sigma, St. Louis, MO, USA) for 48 h at 37°C, 5% CO2. [87] […] [87]
For the cytotoxicity assay, we used the THP-1-derived macrophages (50,000 cells/well) seeded in 96-well plates and treated with serial concentrations of compounds (final concentrations of 1.5-100 μM) for 24h. After that, an MTT assay was performed as previously described to determine cell viability. [88] Thus, 20 μl of MTT solution (5 mg/ml) were added to each well and incubated at 25°C for 4h. Then, 150 μl of DMSO were added to each well to dissolve the blue formazan and the optical density (OD) was measured at 560 nm with a microplate reader ([sequence], Labsystems).
The cell viability of THP-1-derived macrophages was expressed as the percentage of the viable cell number in treated cells relative to the THP-1-derived macrophages treated with 1% DMSO. The 50% cytotoxic concentrations (CC50) were calculated for all the tested compounds by interpolation. All experiments were repeated three times in triplicate for each compound concentration.

[5] = 1 μM protein, 1 mM ATP, saturating RNA, read-out: IC50 of eIF4AIMus ATPase activity
[6] = Leishmania infantum, Macrophage, 24 h

Compound: 7-α/β-aminocholesterol
- reduction of the number of intracellular L. donovani amastigotes [1]: 59%

Compound: CC(C)CCCC(C)C1CCC2C3CC(N)C4CC(O)CCC4(C)C3CCC12C (mixture of isomers) [Compound 208, 6-α/β-aminocholestanol]
- IC50 [2]: 4.1 ± 2.6 µM
- IC50 (LieIF): 0.15 ± 0.015 mM
- inhibition at 500 µM (LieIF; 500 μM compound, phosphate released after 45 min, 96-well screen, read-out: percentage of inhibition of LieIF ATPase activity): 90%
- IC50 (eIF4AIMus; [5]): 0.115 ± 0.025 mM
- IC50 [3, 6]: 1.4 ± 0.1 µM
- CC50 at 24 h [4]: 43.4 ± 0.1 µM

Compound: CC(C)CCCC(C)C1CCC2C3CC(N)C4CC(O)CCC4(C)C3CCC12C (stereo not drawn) [Compound 20, 6-α-aminocholestanol]
- IC50 [2]: 3.6 ± 0.1 µM
- IC50 (LieIF): 0.16 ± 0.025 mM
- effect on the ATPase activity of LieIF in screen (LieIF): demonstrated inhibition
- IC50 (eIF4AIMus; [5]): 0.185 ± 0.025 mM
- effect on the ATPase activity of eIF4AIMus in screen (eIF4AIMus): demonstrated inhibition
- IC50 [3, 6]: < 1 µM
- IC50 [3]: 0.9 µM
- CC50 at 24 h [4]: 35.2 ± 1.3 µM

Compound: CC(C)CCCC(C)C1CCC2C3CC(=O)C4CC(O)CCC4(C)C3CCC12C (stereo not drawn) [Compound 48, 6-ketocholestanol]
- IC50 [2]: 39.1 ± 0.8 µM
- IC50 (LieIF): > 1 mM
- IC50 (LieIF; read-out: IC50 of LieIF ATPase activity, 1 μM protein, value printed in mM in text): ≤ 1 mM
- effect on the ATPase activity of LieIF in screen (LieIF): demonstrated inhibition
- IC50 (eIF4AIMus): > 1 mM
- IC50 (eIF4AIMus; read-out: IC50 of eIF4AIMus ATPase activity, 1 μM protein, value printed in mM in text): ≤ 1 mM
- effect on the ATPase activity of eIF4AIMus in screen (eIF4AIMus): demonstrated inhibition
- IC50 [3, 6]: 4.2 ± 0.1 µM
- CC50 at 24 h [4]: 81.4 ± 2.4 µM
